Results published in PMC4671662, “Identification of New Molecular Entities (NMEs) as Potential Leads against Tuberculosis from Open Source Compound Repository” (PLoS ONE, 2015).
≈ marks a conversion by molar mass, not a printed value. Read-outs that look alike come from different tables or passages of the source.

How the values were obtained:
M. tuberculosis (H37Rv) = M. tuberculosis (H37Rv) inhibition assay, Alamar Blue MIC; assay type: cell-based; details: Mycobacterium tuberculosis, 168 h, six days + 24 h
[1] = tested on: Mycobacterium smegmatis (mc^2155); experiment: Antimycobacterial assay, turbidometric MIC (OD 600 nm); assay type: cell-based; details: Mycolicibacterium smegmatis, read-out: M. smeg MIC
[2] = tested on: Mycobacterium bovis (BCG); experiment: microbe, parasite or virus in culture; assay type: cell-based; details: Mycobacterium tuberculosis variant bovis BCG, 96 h, read-out: BCG MIC
Mycobacterium = experiment: Minimum Bactericidal Concentration (MBC) test, CFU approach; assay type: cell-based; details: for MBC compared with MIC: against the test organisms of the study; for Bacteriocidal/Bacteriostatic: from comparison of MIC and MBC
[3] = tested on: HepG2 (human hepatoma cells); experiment: Sulforhodamine B (SRB) cytotoxicity assay; assay type: cell-based; details: 48 h
[4] = tested on: A549 (human lung epithelial cells); experiment: Sulforhodamine B (SRB) cytotoxicity assay; assay type: cell-based; details: 48 h
MCF-7 = tested on: MCF-7; design: method as in PMID 18507473; details: cited from earlier work
NCI-H460 = tested on: NCI-H460; design: method as in PMID 18507473; details: cited from earlier work
SF-264 = tested on: SF-264; design: method as in PMID 18507473; details: cited from earlier work
M. smegmatis (MC^2 155) = experiment: M. smegmatis primary screening, z-score; assay type: cell-based, Mycobacterium smegmatis; details: positive controls in primary screening
[5] = tested on: Campylobacter fetus subsp. jejuni; details: cited from earlier work
[6] = MC^2155, lowest concentration with 90% growth inhibition, 32 hours

Compound	MIC (M. tuberculosis (H37Rv)) [µM]	MIC [1, 6] [µM]	MIC [2] [µM]	MBC compared with MIC (Mycobacterium)	Bacteriocidal/Bacteriostatic (Mycobacterium)	IC50 [3] [µM]	IC50 [4] [µM]	IC50 (MCF-7) [µM]	IC50 (NCI-H460) [µM]	IC50 (SF-264) [µM]	MIC ([1]; MC^2155, 32 h) [µM]	mean z-score (M. smegmatis (MC^2 155))	MBC [5] [µg/mL]	MIC [5] [µg/mL]
Nc1ccc(C(=O)CC2(O)c3ccccc3-n3c2nc2ccccc2c3=O)cc1 (stereo not shown) [Compound H136]	1.6	42.5 (≈ 16.3 µg/mL)	11.4 (≈ 4.37 µg/mL)	MBC values equivalent to their MIC values	bactericidal activity	359	321							
O=C(CC1(O)c2ccccc2-n2c1nc1ccccc1c2=O)c1ccccc1 (stereo not shown) [Compound H26]	0.4	53 (≈ 19.5 µg/mL)	12 (≈ 4.44 µg/mL)	MBC values equivalent to their MIC values	bactericidal activity	417	368	> 50	> 50	> 50				
Nc1ccc(C(=O)CSc2nnc3c(n2)CCCC3)cc1 [Compound H134]	12.5	22.7 (≈ 6.82 µg/mL)	10.9 (≈ 3.27 µg/mL)		Bacteriostatic	368	424							
Cc1nc(C)c(C(=O)N(c2cccc(C)c2C)C(C(=O)NC2CCCCC2)c2ccccc2)s1 (stereo not shown) [Compound H85]	12.5	25.1 (≈ 12 µg/mL)	11.5 (≈ 5.47 µg/mL)		Bacteriostatic	790	497							
CCSc1nsc(NC(=O)Nc2ccc(C(F)(F)F)cc2)n1 [Compound H94]	6.25	25.4 (≈ 8.83 µg/mL)	12.7 (≈ 4.42 µg/mL)		Bacteriostatic	599	443							
O=C(CSc1nnc2scc(-c3ccccc3)n12)Nc1ccc(N2CCCC2)cc1 [Compound H127]	12.5	46.6 (≈ 20.3 µg/mL)	14.2 (≈ 6.19 µg/mL)		Bacteriostatic	348	411							
Cc1ccc(C)c(Cn2nnc3c(O)nc(C4CCCN(C(=O)c5ccc(C(C)(C)C)cc5)C4)nc32)c1 (stereo not shown) [Compound H126]	12.5	30.6 (≈ 15.3 µg/mL)	23.8 (≈ 11.9 µg/mL)		Bacteriostatic	357	369							
O=C(CSc1nnc(COc2ccc(F)cc2)o1)OC1CCCCC1 [Compound H43]	6.28	52 (≈ 19 µg/mL)	13.5 (≈ 4.96 µg/mL)		Bacteriostatic	373	335							
COc1cccc2c1C(=O)c1c(O)c3c(c(O)c1C2=O)C[C@@](O)(C(=O)CO)C[C@@H]3O[C@H]1C[C@H](N)[C@H](O)[C@H](C)O1 [Doxorubicin, reference compound]						4.6	5.2							
O=C(Cn1c(=O)n(Cc2ccc(F)cc2)c(=O)c2ccccc21)Nc1cc(F)ccc1F [Compound H137]	12.5	39.2 (≈ 17.2 µg/mL)	22.8 (≈ 10 µg/mL)		Bacteriostatic	390	385							
COc1cc2c(cc1NC(=O)N1CCCCC1c1cccnc1)oc1ccccc12 (stereo not shown) [Compound H15]	12.5	42 (≈ 16.9 µg/mL)	12 (≈ 4.83 µg/mL)		Bacteriostatic	510	526							
NNC(=O)c1ccncc1 [Isoniazid, reference compound]											11 (≈ 1.51 µg/mL)	4.9		
Cc1ccc(-c2nc3ccccc3s2)cc1 [Compound H117]	12.5	26.8 (≈ 6.04 µg/mL)	14.9 (≈ 3.36 µg/mL)		Bacteriostatic	408	475							
N#Cc1ccc(C(=O)CC2(O)c3ccccc3-n3c2nc2ccccc2c3=O)cc1 (stereo not shown) [Compound H27]	1.56	12.8 (≈ 5.05 µg/mL)	6.58 (≈ 2.59 µg/mL)		Bacteriostatic	444	902							
CO[C@H]1/C=C/O[C@@]2(C)Oc3c(C)c(O)c4c(O)c(c(/C=N/N5CCN(C)CC5)c(O)c4c3C2=O)NC(=O)/C(C)=C\C=C\[C@H](C)[C@H](O)[C@@H](C)[C@@H](O)[C@@H](C)[C@H](OC(C)=O)[C@@H]1C [Rifampicin, reference compound]											2.43 (≈ 2 µg/mL)	4.4		
co-trimoxazole													125	31.2
